Assay results reported in patent US12037415B2, “Peptide and pharmaceutical composition for treating an eye disease comprising the same as an active pharmaceutical ingredient” (YuYu Pharma, Inc., priority 2017, dated 2024).
Non-standard residues stand in square brackets, D forms with d. Residues, ends and D or L forms follow the SMILES beside them. No end group written: not given here. ξ: configuration not given here. Hyp = O=C(O)[C@@H]1C[C@@H](O)CN1; Ile(3ξ) = CCC(C)[C@H](N)C(=O)O; Sar = CNCC(=O)O

What was measured:
[1] = Stability in aqueous solution, amount of related substances under long-term storage conditions; format: physicochemical; conditions: glass vial, 25° C., 75% RH
Procedure: In order to confirm the stability of each test substance in an aqueous solution, […] of each sample was dissolved in 1 ml of water to a concentration of 1 mg/ml, which was then charged to a glass vial, plugged with a rubber cap, sealed with an aluminum cap, and stored under long-term storage conditions (25° C., 75% RH). The stability of the test substance was evaluated by measuring the amount of related substances at the time of one week, two weeks, four weeks, eight weeks, and twelve weeks under the long-term storage conditions.

[2] = tested on: rats with dry eye syndrome (extraorbital lacrimal gland excision, ELGE); experiment: Amount of tear secretion (Schirmer test, cobalt chloride paper) in rats with ELGE-induced dry eye syndrome; format: in vivo, rat; conditions: for Amount of tear secretion as compared with the ELGE control group: 0.3% solution (DS 3%), administration for 14 days
Source text: (§1) In order to evaluate the eye protection effect on dry eye syndrome by YDE-001 to YDE-028 prepared in Working Example 1, a total of 320 Sprague-Dawley-type male rats (OrientBio, Seungnam, Korea) were adapted for 7 days. Thereafter, dry eye syndrome was induced in 264 test rats through extraorbital lacrimal gland excision (hereinafter, ELGE). 8 test rats without the eye abnormality were subjected to a sham operation as a control group.
(§2) The rats were systemically anesthetized by inhaling a mixed gas of 2% to 3% of isoflurane (Hana Pharm. Co., Hwasung, Korea), 70% of N2O, and 28.6% of O2 using a rodent anesthesia machine (Surgivet, Waukesha, Wis., USA) and a ventilator (Model 687, Harvard Apparatus, Cambridge, UK). Thereafter, the extraorbital lacrimal gland located in the subdermal area above the masseter muscle and under the optic nerve was excised through a transverse incision in a size of 10 mm on the anterior part of the left ear tragus. The skin was sutured by a general method. […] After 6 days following the ELGE operation, confirmation was performed through the Schirmer test by measuring the amount of tear secretion whether dry eye syndrome had been induced. Meanwhile, each rat of the control group with the sham operation was checked for the presence and location of the extraorbital lacrimal gland through a skin incision, and the skin was then sutured without the excision thereof (FIG. 134).
(§3) In addition, in order to evaluate the eye protection effect on dry eye syndrome by YDE-029 to YDE-043 prepared in Working Example 1, a total of 200 Sprague-Dawley-type male rats (OrientBio, Seungnam, Korea) were adapted for 7 days. Dry eye syndrome was induced in 165 test rats through the ELGE. 8 test rats without the eye abnormality were subjected to the sham operation as a control group. The ELGE was carried out as described above.
(§4) For YDE-001 to YDE-028, YY-102 and the 28 YDE-series were each dissolved in physiological saline at a concentration of 3 mg/ml and administered at a dose of 5 μl/eye at 9:30 am and 3:30 pm daily for 14 days after 7 days from the ELGE operation for a total of 28 times. The DS solution was dissolved in physiological saline at a concentration of 30 mg/ml and administered at a dose of 5 μl/eye twice a day for 14 days after 7 days from the ELGE operation for a total of 28 times. For the sham control and the ELGE control groups, the same stimulation as the administration was applied. In order to prevent excessive eye dryness, the same volume of physiological saline was applied in the same manner in place of the test substances.
as §4, with “Further, For YDE-029” for “For YDE-001”, “Further, For YDE-029 to YDE-043,” for “For YDE-001 to YDE-028,”, “YDE-029 to YDE-043, YY-102 and” for “YDE-001 to YDE-028, YY-102 and”, “and the 15 YDE-series were” for “and the 28 YDE-series were”, “the test substances (FIG. 137).” for “the test substances.”
After 6 days from the ELGE surgery, the changes in the amount of tear secretion were measured at day 7 and day 14 after the administration of YDE-001 to YDE-043. The amount of tear secretion was measured by the […] travel distance of tears absorbed by cobalt chloride paper in a size of 1×15 mm (Toyo Roshi Kaisha, Japan).
The cobalt chloride paper was placed in the lateral canthus of a rat for 60 seconds to absorb tears (FIG. 139). The length of the area absorbed from the corner of the cobalt chloride paper was measured with an electronic digital caliper (Mytutoyo, Tokyo, Japan) (FIG. 138).

[3] = tested on: cornea of rats with dry eye syndrome (ELGE); experiment: Corneal permeability of fluorescent dye (corneal damage) in rats with ELGE-induced dry eye syndrome; format: in vivo, rat; conditions: 0.3% solution, day 14 after the administration
Source text: as §1, §2, §3, §4
as §4, with “Further, For YDE-029” for “For YDE-001”, “Further, For YDE-029 to YDE-043,” for “For YDE-001 to YDE-028,”, “YDE-029 to YDE-043, YY-102 and” for “YDE-001 to YDE-028, YY-102 and”, “and the 15 YDE-series were” for “and the 28 YDE-series were”, “the test substances (FIG. 137).” for “the test substances.”
After YDE-001 to YDE-028 were each administered to the eyes […], the changes in the corneal permeability were checked.
In order to measure the corneal permeability, Zolethyl 50™ (Virbac Lab., Carros, France), an animal anesthetic, was intraperitoneally injected at a dose of 25 mg/kg. Thereafter, saline containing a 1% (v/v) fluorescent solution (fluorescein sodium salt, Tokyo Kasei Kogyo Co., Tokyo, Japan) was applied to the eyes at a dose of 5 μl/eye. The eyes thus treated were closed and fixed with a tape. After 1 hour, the remaining fluorescent solution was removed using a cotton swab (FIG. 142). […]

[4] = study of YDE-001 to YDE-028 (Table 16)
[5] = study of YDE-029 to YDE-043 (Table 17)

Compound	Amount of related substances (%; after 12 weeks) [1] [%]	Amount of tear secretion as compared with the ELGE control group ([2]; study of YDE-001 to YDE-028)	Permeability of fluorescent dye (%) [3, 4] [%]	Amount of tear secretion as compared with the ELGE control group ([2]; study of YDE-029 to YDE-043)	Permeability of fluorescent dye (%) [3, 5] [%]	Tear Volumes, Day 7 ([2]; ELGE rats, 0.3% solution, 5 μl/eye twice daily, day 7 of administration, study of YDE-001 to YDE-028 (Table 14)) [mm^3]	Tear Volumes, Day 14 ([2]; ELGE rats, 0.3% solution, 5 μl/eye twice daily, day 14 of administration, study of YDE-001 to YDE-028 (Table 14)) [mm^3]
CNC(=O)C[C@H](NC(=O)[C@H](CCC(N)=O)NC(=O)CNC(=O)[C@@H]1C[C@@H](O)CN1)C(=O)NCC(=O)N[C@@H](CC(C)C)C(=O)N[C@@H](C)C(=O)NCC(=O)N1CCC[C@H]1C(=O)N[C@@H](CCCCN)C(=O)O [YDE-028, HyP-Gly-Gln-Asn(Me)-Gly-Leu-Ala-Gly-Pro-Lys] (H-[Hyp]GQD(NHMe)GLAGPK-OH)	1.15	did not show any significant changes	41.17 ± 10.25	–	–	–	–
CC(C)C[C@H](NC(=O)[C@H](Cc1c[nH]c2ccccc12)NC(=O)[C@H](CC(=O)O)NC(=O)[C@H](CCC(N)=O)NC(=O)CNC(=O)[C@@H]1C[C@@H](O)CN1)C(=O)N[C@@H](C)C(=O)NCC(=O)N1CCC[C@H]1C(=O)N[C@@H](CCCCN)C(=O)O [YDE-021, HyP-Gly-Gln-Asp-Trp-Leu-Ala-Gly-Pro-Lys] (H-[Hyp]GQDWLAGPK-OH)	21.33	did not show any significant changes	37.00 ± 10.49	–	–	–	–
COC(=O)C[C@H](NC(=O)[C@H](CCC(N)=O)NC(=O)CNC(=O)[C@@H]1C[C@@H](O)CN1)C(=O)NCC(=O)N[C@@H](CC(C)C)C(=O)N[C@@H](C)C(=O)NCC(=O)N1CCC[C@H]1C(=O)N[C@@H](CCCCN)C(=O)O [YDE-027, HyP-Gly-Gln-Asp(Me)-Gly-Leu-Ala-Gly-Pro-Lys] (H-[Hyp]GQD(OMe)GLAGPK-OH)	12.74	did not show any significant changes	50.24 ± 11.94	–	–	–	–
CC(C)C[C@H](NC(=O)CNC(=O)[C@@H](NC(=O)[C@H](CCC(N)=O)NC(=O)CNC(=O)[C@@H]1C[C@@H](O)CN1)C(C)C)C(=O)N[C@@H](C)C(=O)NCC(=O)N1CCC[C@H]1C(=O)N[C@@H](CCCCN)C(=O)O [YDE-009, HyP-Gly-Gln-Val-Gly-Leu-Ala-Gly-Pro-Lys] (H-[Hyp]GQVGLAGPK-OH)	4.71	did not show any significant changes	41.50 ± 7.86	–	–	–	–
CCC(C)[C@H](NC(=O)[C@H](CCC(N)=O)NC(=O)CNC(=O)[C@@H]1C[C@@H](O)CN1)C(=O)NCC(=O)N[C@@H](CC(C)C)C(=O)N[C@@H](C)C(=O)NCC(=O)N1CCC[C@H]1C(=O)N[C@@H](CCCCN)C(=O)O (stereo partly drawn) [YDE-010, HyP-Gly-Gln-Ile-Gly-Leu-Ala-Gly-Pro-Lys] (H-[Hyp]GQ[Ile(3ξ)]GLAGPK-OH)	4.39	did not show any significant changes	49.29 ± 12.06	–	–	–	–
CC(C)C[C@H](NC(=O)CNC(=O)[C@H](CC(C)C)NC(=O)[C@H](CCC(N)=O)NC(=O)CNC(=O)[C@@H]1C[C@@H](O)CN1)C(=O)N[C@@H](C)C(=O)NCC(=O)N1CCC[C@H]1C(=O)N[C@@H](CCC(N)=O)C(=O)O [YDE-032, HyP-Gly-Gln-Leu-Gly-Leu-Ala-Gly-Pro-Gln] (H-[Hyp]GQLGLAGPQ-OH)	–	–	–	did not show any significant changes	58.90 ± 19.81	–	–
CC(C)C[C@H](NC(=O)[C@H](Cc1ccc(O)cc1)NC(=O)[C@H](CC(=O)O)NC(=O)[C@H](CCC(N)=O)NC(=O)CNC(=O)[C@@H]1C[C@@H](O)CN1)C(=O)N[C@@H](C)C(=O)NCC(=O)N1CCC[C@H]1C(=O)N[C@@H](CCCCN)C(=O)O [YDE-020, HyP-Gly-Gln-Asp-Tyr-Leu-Ala-Gly-Pro-Lys] (H-[Hyp]GQDYLAGPK-OH)	21.54	did not show any significant changes	47.84 ± 13.47	–	–	–	–
CC(C)C[C@H](NC(=O)CNC(=O)[C@H](CC(C)C)NC(=O)[C@H](CCC(N)=O)NC(=O)CNC(=O)[C@@H]1C[C@@H](O)CN1)C(=O)N[C@@H](C)C(=O)O [YDE-041, HyP-Gly-Gln-Leu-Gly-Leu-Ala] (H-[Hyp]GQLGLA-OH)	–	–	–	did not show any significant changes	46.38 ± 26.65	–	–
CC(C)C[C@H](NC(=O)[C@@H]1CCCN1C(=O)CNC(=O)[C@H](C)NC(=O)[C@H](CC(C)C)NC(=O)CNC(=O)[C@H](CC(C)C)NC(=O)[C@H](CCC(N)=O)NC(=O)CNC(=O)[C@@H]1C[C@@H](O)CN1)C(=O)O [YDE-030, HyP-Gly-Gln-Leu-Gly-Leu-Ala-Gly-Pro-Leu] (H-[Hyp]GQLGLAGPL-OH)	–	–	–	did not show any significant changes	30.60 ± 13.61	–	–
YDE-025: peptide of SEQ ID NO: 31, the compound represented by Formula 10 ([Hyp]GQD[Sar]LAGPK; ends and bridges not checked)	5.17	did not show any significant changes	47.10 ± 11.45	–	–	3.21 ± 0.72	4.72 ± 2.19
CC(C)C[C@H](NC(=O)[C@H](CC(C)C)NC(=O)[C@H](CC(=O)O)NC(=O)[C@H](CCC(N)=O)NC(=O)CNC(=O)[C@@H]1C[C@@H](O)CN1)C(=O)N[C@@H](C)C(=O)NCC(=O)N1CCC[C@H]1C(=O)N[C@@H](CCCCN)C(=O)O [YDE-017, HyP-Gly-Gln-Asp-Leu-Leu-Ala-Gly-Pro-Lys] (H-[Hyp]GQDLLAGPK-OH)	11.88	did not show any significant changes	39.76 ± 7.42	–	–	–	–
